Assay results from patent US20100267561A1, “HERBICIDAL PYRIDAZINONE DERIVATIVES” (priority 2007, published 2010).

Key:
Experiment in all cases: Test B pre-/postemergence plant response
Assay type in all cases: in vivo
[1] = tested on: Russian thistle (Salsola iberica); conditions: Preemergence
In short: (§1)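 Preemergence and postemergence (plants 2-18 cm, 1- to 4-leaf stage) applications used test chemicals in a non-phytotoxic solvent with surfactant. Plants were held in a greenhouse 13 to 15 days, then rated visually against controls on a 0-100 scale (0 no effect, 100 complete control).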

[2] = tested on: blackgrass (Alopecurus myosuroides); conditions: for Blackgrass plant response rating: 8 g ai/ha
In short: as §1

[3] = tested on: cocklebur (Xanthium strumarium); conditions: for Cocklebur plant response rating: 8 g ai/ha
In short: as §1

[4] = tested on: common (oilseed) sunflower (Helianthus annuus); conditions: Preemergence
In short: as §1

[5] = tested on: common ragweed (Ambrosia elation)
In short: as §1

corn (Zea mays) = tested on: corn (Zea mays)
In short: as §1

[6] = tested on: downy bromegrass (Bromus tectorum); conditions: for Bromegrass, Downy plant response rating: 8 g ai/ha
In short: as §1

[7] = tested on: eastern black (E.B.) nightshade (Solanum ptycanthum); conditions: Preemergence
In short: as §1

[8] = tested on: green foxtail (Setaria viridis)
In short: as §1

[9] = tested on: surinam grass (Brachiaria decumbens)
In short: as §1

[10] = tested on: wheat (Triticum aestivum)
In short: as §1

wild oat (Avena fatua) = tested on: wild oat (Avena fatua)
In short: as §1

[11] = tested on: woolly cupgrass (Eriochloa villosa)
In short: as §1

[12] = tested on: yellow nutsedge (Cyperus esculentus)
In short: as §1

[13] = 31 g ai/ha, scale 0 to 100 (0 no effect, 100 complete control)
[14] = Postemergence, 16 g ai/ha, scale 0 to 100
[15] = Postemergence, 31 g ai/ha, scale 0 to 100
[16] = Postemergence, 62 g ai/ha, scale 0 to 100, 0 no effect, 100 complete control
[17] = Preemergence, 16 g ai/ha, scale 0 to 100 (0 no effect, 100 complete control)
[18] = Preemergence, 31 g ai/ha, 0 to 100 scale, 0 no effect, 100 complete control
[19] = Preemergence, 62 g ai/ha, scale 0 to 100
[20] = 8 g ai/ha, postemergence, 0-100 scale
[21] = Preemergence, 31 g ai/ha, scale 0 to 100 (0 no effect, 100 complete control)
[22] = Preemergence, 8 g ai/ha, scale 0 to 100
[23] = Preemergence, 16 g ai/ha, scale 0 to 100
[24] = Preemergence, 62 g ai/ha, 0 to 100 scale, 0 no effect, 100 complete control

## Cc1cc(-c2ccc(Cl)cc2)nn1-c1c(OC(=O)c2cccs2)cnn(C)c1=O [Compound 52]
[1]; [13]
  Plant response rating, Russian Thistle: 0
[1]; 62 g ai/ha, scale 0 to 100
  Plant response rating, Russian Thistle: 0
[1]; 8 g ai/ha, scale 0 to 100
  Russian Thistle plant response rating: 0
[1]; 16 g ai/ha, scale 0 to 100
  Russian Thistle plant response rating: 0
[2]; postemergence, 0-100 scale
  Blackgrass plant response rating: 50
[2]; [14]
  Plant response rating, Blackgrass: 70
[2]; [15]
  Plant response rating, Blackgrass: 95
[2]; [16]
  Plant response rating, Blackgrass: 95
[2]; [17]
  Plant response rating, Blackgrass: 95
[2]; [18]
  Plant response rating, Blackgrass: 100
[2]; [19]
  Plant response rating, Blackgrass: 100
[2]; Preemergence, scale 0 to 100
  Blackgrass plant response rating: 0
[3]; postemergence, 0-100 scale
  Cocklebur plant response rating: 0
[3]; [14]
  Plant response rating, Cocklebur: 0
[3]; [15]
  Plant response rating, Cocklebur: 0
[3]; [16]
  Plant response rating, Cocklebur: 0
[3]; [17]
  Plant response rating, Cocklebur: 0
[3]; [18]
  Plant response rating, Cocklebur: 0
[3]; [19]
  Plant response rating, Cocklebur: 0
[3]; Preemergence, scale 0 to 100
  Cocklebur plant response rating: 0
[4]; [13]
  Plant response rating, Sunflower: 0
[4]; 62 g ai/ha, scale 0 to 100
  Plant response rating, Sunflower: 0
[4]; 8 g ai/ha, scale 0 to 100
  Sunflower plant response rating: 0
[4]; 16 g ai/ha, scale 0 to 100
  Sunflower plant response rating: 0
[5]; [20]
  Ragweed plant response rating: 0
[5]; [14]
  Plant response rating, Ragweed: 0
[5]; [15]
  Plant response rating, Ragweed: 0
[5]; [16]
  Plant response rating, Ragweed: 0
[5]; [21]
  Plant response rating, Ragweed: 0
[5]; [19]
  Plant response rating, Ragweed: 0
[5]; [22]
  Ragweed plant response rating: 0
[5]; [23]
  Ragweed plant response rating: 0
Corn (Zea mays); [20]
  Corn plant response rating: 85
Corn (Zea mays); [14]
  Plant response rating, Corn: 98
Corn (Zea mays); [15]
  Plant response rating, Corn: 98
Corn (Zea mays); [16]
  Plant response rating, Corn: 98
Corn (Zea mays); [18]
  Plant response rating, Corn: 70
Corn (Zea mays); [19]
  Plant response rating, Corn: 75
Corn (Zea mays); [22]
  Corn plant response rating: 0
Corn (Zea mays); [23]
  Corn plant response rating: 55
[6]; postemergence, 0-100 scale
  Bromegrass, Downy plant response rating: 30
[6]; [14]
  Plant response rating, Bromegrass, Downy: 30
[6]; [15]
  Plant response rating, Bromegrass, Downy: 40
[6]; [16]
  Plant response rating, Bromegrass, Downy: 70
[6]; [17]
  Plant response rating, Bromegrass, Downy: 35
[6]; [18]
  Plant response rating, Bromegrass, Downy: 35
[6]; [19]
  Plant response rating, Bromegrass, Downy: 80
[6]; Preemergence, scale 0 to 100
  Bromegrass, Downy plant response rating: 0
[7]; [13]
  Plant response rating, Nightshade, E. B.: 0
[7]; 62 g ai/ha, scale 0 to 100
  Plant response rating, Nightshade, E. B.: 0
[7]; 8 g ai/ha, scale 0 to 100
  Nightshade, E. B. plant response rating: 0
[7]; 16 g ai/ha, scale 0 to 100
  Nightshade, E. B. plant response rating: 0
[8]; [20]
  Foxtail, Green plant response rating: 80
[8]; [14]
  Plant response rating, Foxtail, Green: 95
[8]; [15]
  Plant response rating, Foxtail, Green: 98
[8]; [16]
  Plant response rating, Foxtail, Green: 100
[8]; [18]
  Plant response rating, Foxtail, Green: 100
[8]; [19]
  Plant response rating, Foxtail, Green: 100
[8]; [22]
  Foxtail, Green plant response rating: 90
[8]; [23]
  Foxtail, Green plant response rating: 90
[9]; [20]
  Surinam Grass plant response rating: 70
[9]; [14]
  Plant response rating, Surinam Grass: 85
[9]; [15]
  Plant response rating, Surinam Grass: 100
[9]; [16]
  Plant response rating, Surinam Grass: 100
[9]; [21]
  Plant response rating, Surinam Grass: 25
[9]; [24]
  Plant response rating, Surinam Grass: 100
[9]; [22]
  Surinam Grass plant response rating: 0
[9]; [23]
  Surinam Grass plant response rating: 0
[10]; [20]
  Wheat plant response rating: 0
[10]; [14]
  Plant response rating, Wheat: 50
[10]; [15]
  Plant response rating, Wheat: 70
[10]; [16]
  Plant response rating, Wheat: 85
[10]; [21]
  Plant response rating, Wheat: 20
[10]; [24]
  Plant response rating, Wheat: 50
[10]; [22]
  Wheat plant response rating: 0
[10]; [23]
  Wheat plant response rating: 0
Wild oat (Avena fatua); [20]
  Oat, Wild plant response rating: 50
Wild oat (Avena fatua); [14]
  Plant response rating, Oat, Wild: 90
Wild oat (Avena fatua); [15]
  Plant response rating, Oat, Wild: 95
Wild oat (Avena fatua); [16]
  Plant response rating, Oat, Wild: 100
Wild oat (Avena fatua); [21]
  Plant response rating, Oat, Wild: 70
Wild oat (Avena fatua); [19]
  Plant response rating, Oat, Wild: 90
Wild oat (Avena fatua); [22]
  Oat, Wild plant response rating: 0
Wild oat (Avena fatua); [23]
  Oat, Wild plant response rating: 30
[11]; [20]
  Cupgrass, Woolly plant response rating: 75
[11]; [14]
  Plant response rating, Cupgrass, Woolly: 90
[11]; [15]
  Plant response rating, Cupgrass, Woolly: 95
[11]; [16]
  Plant response rating, Cupgrass, Woolly: 100
[11]; [18]
  Plant response rating, Cupgrass, Woolly: 0
[11]; [19]
  Plant response rating, Cupgrass, Woolly: 0
[11]; [22]
  Cupgrass, Woolly plant response rating: 0
[11]; [23]
  Cupgrass, Woolly plant response rating: 0
[12]; [20]
  Nutsedge, Yellow plant response rating: 0
[12]; [14]
  Plant response rating, Nutsedge, Yellow: 0
[12]; [15]
  Plant response rating, Nutsedge, Yellow: 0
[12]; [16]
  Plant response rating, Nutsedge, Yellow: 0
[12]; [21]
  Plant response rating, Nutsedge, Yellow: 0
[12]; [19]
  Plant response rating, Nutsedge, Yellow: 0
[12]; [22]
  Nutsedge, Yellow plant response rating: 0
[12]; [23]
  Nutsedge, Yellow plant response rating: 0
